Laboratory results published in PMC7005745 (Scientific Reports, 2020).
Where two headings read alike, the source gives them in different places.

Tests used:
[1] = test system: P. aeruginosa PAK(pCS500); type: cell-based, Pseudomonas aeruginosa
[2] = test system: Y. pseudotuberculosis serotype III strain YPIII(pIB102E-lux); type: cell-based, Yersinia pseudotuberculosis
YopH secretion (T3SS) = type: cell-based, Yersinia pseudotuberculosis
[3] = test system: ExoS expression (T3SS), PAK(pCS500); type: cell-based, Pseudomonas aeruginosa; settings: read-out: IC50 ExoS-gfp
yopE expression (T3SS) = type: cell-based, Yersinia pseudotuberculosis; settings: for IC50: read-out: E-lux IC50
[4] = test system: secretion of Yop effector proteins (T3SS), YPIII(pIB102); type: cell-based, Yersinia pseudotuberculosis; settings: 40 µM, Western blot
[5] = test system: wild-type P. aeruginosa strain PAK infecting J774 cells
[6] = test system: Y. pseudotuberculosis YPIII(pIB102; pFU95); type: cell-based, Yersinia pseudotuberculosis
[7] = Y. pseudotuberculosis, LB with 2.5 mM CaCl2, 37 °C, OD600 up to 24 h
[8] = YopH secretion, YPIII(pIB102E-lux), T3S-inducing conditions, compounds 1–100 µM
[9] = combined yopE-lux and YopH phosphatase assay
[10] = yopE expression, YPIII(pIB102E-lux), T3S-inducing conditions, compounds 1–100 µM

Compound | Tocxicity P.a. [1] | Growth inhibition [2, 7] | IC50 (YopH secretion (T3SS); [8]) [µM] | IC50 [3] [µM] | IC50 (yopE expression (T3SS); [10]) [µM] | Toxicity J774 (J774 cells) | Efficacy Pa J774 [5] | IC50 (YopH secretion (T3SS)) [µM] | IC50 (yopE expression (T3SS)) [µM] | Growth inhibition [2] | other results
Oc1ccc(/C=C\c2cc(O)cc3oc(-c4ccc(O)cc4)c(-c4cc(O)cc(O)c4)c23)cc1 [compound 8, Viniferifuran] | No | without any effect on bacterial growth and No | 4 | 11 | 10 | Tox |  |  |  |  | Inhibition of YopH secretion (in words) (YopH secretion (T3SS); 1–100 µM, Fig. 1b): dose-dependent inhibition; Inhibition of yopE expression (in words) (yopE expression (T3SS); 1–100 µM, Fig. 1a): dose-dependent inhibition; Inhibition of the T3SS (in words) (yopE expression (T3SS); [9]): good inhibition; Reversibility of block of effector secretion (T3SS) after washing [4]: irreversibly block secretion of effector molecules; Reversibility of block of effector secretion (T3SS) after washing ([4]; listed as viniferifuran): irreversible
Oc1ccc(/C=C/c2cc(O)cc3c2[C@@H](c2cc(O)cc(O)c2)[C@H](c2ccc(O)cc2)O3)cc1 [compound 5, (+)-ε-Viniferin] |  | No | 15 |  | > 50 |  | modest or no efficacy |  |  |  | 
(±)-δ-Viniferin [compound 9] |  | No | 15 |  | 29 |  |  |  |  |  | 
C#CCOc1ccc(-c2oc3cc(O)cc(/C=C/c4ccc(O)cc4)c3c2-c2cc(O)cc(O)c2)cc1 [compound 13, Propagylated viniferifuran] |  |  |  |  |  |  |  | 3 | 6 |  | Binding to bacteria [6]: clear binding; Competition of binding by free viniferifuran [6]: binding could be outcompeted
Oc1ccc([C@H]2c3c(O)cc(O)cc3[C@H]3c4c(cc(O)cc4[C@@H]2O)O[C@@H]3c2ccc(O)cc2)cc1 (racemic) [compound 2, (±)-Ampelopsin A] | No | No | > 50 | > 200 | > 50 | No | No |  |  |  | Inhibition of the T3SS (in words) (yopE expression (T3SS); [9]): no or modest inhibition
Anigopreissin A [compound 11] | No |  |  | 15 |  | Some tox |  | 6 | 12 | detrimental effect on bacterial growth and Yes | Inhibition of YopH secretion (in words) (YopH secretion (T3SS)): dose-dependent inhibition; Inhibition of yopE expression (in words) (yopE expression (T3SS)): dose-dependent inhibition
(±)-Dehydro-ampelopsin B [compound 4] | No |  |  | 33 |  | No | No | 20 | 40 | No | Inhibition of the T3SS (in words) (yopE expression (T3SS)): no or modest inhibition
Oc1ccc(-c2oc3ccc(/C=C/c4cc(O)cc(O)c4)cc3c2-c2cc(O)cc(O)c2)cc1 [compound 10, Dehydro-δ-viniferin] | No |  | 4 | 8 | 5 | Tox |  |  |  |  | Inhibition of YopH secretion (in words) (YopH secretion (T3SS); 1–100 µM, Fig. 1b): dose-dependent inhibition; Inhibition of yopE expression (in words) (yopE expression (T3SS); 1–100 µM, Fig. 1a): dose-dependent inhibition
Oc1ccc(/C=C/c2cc(O)cc3c2[C@@H](c2cc(O)cc(O)c2)[C@H](c2ccc(O)cc2)O3)cc1 (racemic) [compound 6, (±)-ε-Viniferin] | No |  |  | 89 |  | No | No | 30 | > 50 | No | 
(-)-Hopeaphenol [compound 1, reference compound] | No | No | 7 | 9 | 10 |  |  |  |  |  | Inhibition of T3SS-mediated cytotoxicity ([5]; 50 µM): complete inhibition of cytotoxicity; Reversibility of block of effector secretion (T3SS) after washing [4]: irreversibly block secretion of effector molecules; Reversibility of block of effector secretion (T3SS) after washing ([4]; listed as (-)-hopeaphenol): irreversible
Oc1ccc(/C=C/c2cc(O)cc3c2[C@@H](c2cc(O)cc(O)c2)[C@H](c2ccc(O)cc2)O3)cc1 (racemic) [compound 7, (±)-Cis-ε-viniferin (Omega-viniferin)] |  |  |  |  |  |  |  | 48 | > 50 | No | 
Oc1ccc([C@@H]2Cc3cc(O)cc4c3[C@H](c3cc(O)cc(O)c32)[C@@H](c2ccc(O)cc2)O4)cc1 (racemic) [compound 3, (±)-Ampelopsin B] | No |  |  | 134 |  | No | No | 40 | > 50 | No | Inhibition of the T3SS (in words) (yopE expression (T3SS)): no or modest inhibition
